Values joined by “and” are separate entries in the source; they are usually repeats but may differ in a detail not shown here. Equal values may be shown once.

We go through 7 molecules from patent publication US8569467B2, “C-glycoside compounds, and method for preparing C-glycoside compounds” (Ecole Nationale Supérieure de Chimie de Rennes, priority 2008, dated 2013).

The nature of data set [1]: Effect on the cloud temperature of the reference surfactant C6E2. The class given is physicochemical. Here is the method:
Finally, the effects of various C-glycoside compounds obtained according to the invention on the cloud temperature of a surfactant were tested in order to evaluate the advantage thereof for the stabilisation of the formulations.
The surfactant taken as a reference is C6E2, diethylene glycol monohexylether.

Data set [2] in a line: Tensiometric measurements of CMC/MAC and interface tension. As to conditions: tensiometric measurement. The class given is physicochemical. From the text:
Tensiometric measurements, namely the measurement of the CMC (Critical Micelle Concentration) and the MAC (Minimal Aggregation Concentration) were made on various compounds obtained according to the invention.

Where [3] appears, read: C6E2 (1% weight) + product (10% weight).
The mark [4] stands for this setting: C6E2 (1% weight) + product (1% weight).

For `C=CCC(C)(O)C[C@@H]1OC(CO)[C@@H](O)C(O)C1O` (single isomer, unassigned) [5-C(Glucosyl)-4-methylpent-1-ene-4-ol, 5-(C-Glucosyl)-4-methylpent-1-ene-4-ol], the Cloud temp in data set [1] (setting [3]) was determined as 44 °C. Moreover, in data set [2], the “CMC*/MAC** (Critical Micelle Concentration / Minimum Aggregation Concentration)” value is on record as 350 mM and the “γCMC/MAC*** (interface tension at the CMC/MAC)” value (shortened to “γCMC/MAC***”) is listed as 34 Mn · m^−1. As for `C=CCC(C)(O)C[C@@H]1OC(CO)[C@@H](O[C@@H]2OC(CO)[C@H](O)C(O)C2O)C(O)C1O` (single isomer, unassigned) [5-C-(Lactosyl)-4-methylpent-1-ene-4-ol, 5-(C-Lactosyl)-4-methylpent-1-en-4-ol], the Cloud temp in data set [1] (setting [3]) was found to be 39 °C. In the case of `CCCCCC(=O)CC1O[C@H](CO)[C@H](O)[C@H](O)[C@H]1O` (stereo partly shown) [1-C-(Galactosyl)-heptan-2-one], in data set [2], the “CMC*/MAC** (Critical Micelle Concentration / Minimum Aggregation Concentration)” value was determined as 17.5 mM and the “γCMC/MAC***” value was determined as 30 Mn · m^−1. Consider `CCCCCC(=O)C[C@@H]1OC(CO)[C@@H](O)C(O)C1O` (stereo partly shown) [1-C-(Glucosyl)-heptan-2-one, 1-(C-Glucosyl)-heptan-2-one], for which, in data set [1] (setting [4]), the Cloud temp came out at 62 °C. Besides, the “γCMC/MAC***” value in data set [2] is 30 Mn · m^−1 and 28 Mn · m^−1.

Consider `CCCCCC(=O)CC1O[C@H](CO)[C@@H](O[C@@H]2O[C@H](CO)[C@H](O)[C@H](O)[C@H]2O)[C@H](O)[C@H]1O` (stereo partly shown) [1-C-(Lactosyl)-heptan-2-one], for which, in data set [1] (setting [4]), the Cloud temp was found to be 58 °C. Moreover, in data set [2], the “CMC*/MAC** (Critical Micelle Concentration / Minimum Aggregation Concentration)” value stood at 17 mM and the “γCMC/MAC***” value was found to be 30 Mn · m^−1. As for `C=CCC(C)(O)CC1O[C@H](CO)[C@H](O)[C@H](O)[C@H]1O` (stereo partly shown) [5-C-(Galactosyl)-4-methylpent-1-ene-4-ol], the Cloud temp in data set [1] (setting [3]) was 42 °C. Take `CCCCCCOCCOCCO` [Example C6E2, diethylene glycol monohexylether, reference compound]: in data set [1] (C6E2 (1% weight) alone, reference surfactant), the Cloud temp was 34 °C.
